Assays:
F. tularensis GyrB = F. tularensis GyrB (Francisella tularensis subsp. tularensis, UniProt Q5NHE7); assay: biochemical; assay type: binding
[1] = target: T1, E. coli gyrase A2B2 heterotetramer (Escherichia coli, UniProt P0AES6); assay: Gyrase activity assay (supercoiling of relaxed plasmid DNA); assay type: biochemical; details: 50 μM compound, 0.5 μg relaxed DNA, 1 hour at 37° C., agarose gel
T1 construct: purchased Topogen

Chain of F. tularensis GyrB (Q5NHE7 1-805): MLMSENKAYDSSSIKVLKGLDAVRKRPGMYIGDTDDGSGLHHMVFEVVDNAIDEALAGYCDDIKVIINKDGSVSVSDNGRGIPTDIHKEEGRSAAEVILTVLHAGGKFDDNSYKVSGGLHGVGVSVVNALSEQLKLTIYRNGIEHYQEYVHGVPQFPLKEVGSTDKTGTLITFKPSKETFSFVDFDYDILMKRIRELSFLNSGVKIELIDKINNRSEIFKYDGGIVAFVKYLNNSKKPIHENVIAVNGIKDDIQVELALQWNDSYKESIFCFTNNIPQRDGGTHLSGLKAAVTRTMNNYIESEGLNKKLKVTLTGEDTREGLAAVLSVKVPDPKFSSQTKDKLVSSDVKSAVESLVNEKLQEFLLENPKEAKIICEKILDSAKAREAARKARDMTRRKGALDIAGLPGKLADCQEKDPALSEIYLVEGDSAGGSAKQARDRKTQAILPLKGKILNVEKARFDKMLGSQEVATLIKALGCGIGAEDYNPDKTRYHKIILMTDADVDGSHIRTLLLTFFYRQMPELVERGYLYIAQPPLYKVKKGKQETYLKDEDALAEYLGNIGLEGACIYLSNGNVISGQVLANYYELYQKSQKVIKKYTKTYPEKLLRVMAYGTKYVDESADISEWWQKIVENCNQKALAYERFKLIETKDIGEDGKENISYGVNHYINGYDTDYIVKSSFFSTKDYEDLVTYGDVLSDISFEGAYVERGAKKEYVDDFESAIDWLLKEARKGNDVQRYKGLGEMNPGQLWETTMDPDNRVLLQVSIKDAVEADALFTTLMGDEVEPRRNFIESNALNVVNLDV

COc1cccc2c1C(=O)c1c(O)c3c(c(O)c1C2=O)C[C@@](O)(C(C)=O)C[C@@H]3O[C@H]1C[C@H](N)[C@H](O)[C@H](C)O1 [daunorubicin]
Ki (F. tularensis GyrB): 444 nM | inhibition of supercoiling of relaxed DNA [1]: less clear

COc1cccc2c1C(=O)c1c(O)c3c(c(O)c1C2=O)C[C@@](O)(C(=O)CO)C[C@@H]3O[C@H]1C[C@H](N)[C@H](O)[C@H](C)O1 [doxorubicin]
Ki (F. tularensis GyrB): 94 nM | inhibition of supercoiling of relaxed DNA [1]: inhibit supercoiling to the level of the no gyrase control

COc1cccc2c1C(=O)c1c(O)c3c(c(O)c1C2=O)C[C@@](O)(C(=O)CO)C[C@@H]3O[C@H]1C[C@H](N)[C@@H](O)[C@H](C)O1 [epirubicin]
Ki (F. tularensis GyrB): 386 nM | inhibition of supercoiling of relaxed DNA [1]: inhibit supercoiling to the level of the no gyrase control

CC(=O)[C@]1(O)Cc2c(O)c3c(c(O)c2[C@@H](O[C@H]2C[C@H](N)[C@H](O)[C@H](C)O2)C1)C(=O)c1ccccc1C3=O [idarubicin]
Ki (F. tularensis GyrB): 480 nM | inhibition of supercoiling of relaxed DNA [1]: less clear

Reference: patent US8497361B2, “Topoisomerase binding probe and method of use” (priority 2010, dated 2013)
